Source: patent US9173871B2, “Oxazole and thiazole compounds as beta-catenin modulators and uses thereof” (New York University, priority 2008, dated 2015)

How the values were obtained:
Format in all cases: cell-based
[1] = test system: LNCaP-abl cells; test: Proliferation assay (neutral red uptake), LNCaP-abl; details: 20 μM daily
Experimental: A) Cells were cultured in phenol-red free RPMI with either 5% charcoal-stripped FBS supplemented with 0.1 nM R1881 (LNCaP) or 10% charcoal-stripped FBS alone (LNCaP-abl). […] Neutral red uptake assay was performed at the end of treatment to estimate the number of viable cells. […] Fixed cells were stained with Propidium Iodide and analyzed for DNA content using flow cytometry. The first and the second red peak and the dashed area represent G0/G1, M and S-phase cell population, respectively.

[2] = test system: ARE-LUC androgen responsive reporter gene in LNCaP; test: AR responsive luciferase reporter (ARE-LUC / LB1-LUC) in LNCaP cells
Experimental: (§1) LNCaP or LNCaP-abl (ABL) cells were cotransfected with 0.1 μg β-galactosidase and 0.2 μg S37A stabilized β-catenin together with the indicated luciferase reporter constructs; STF16-LUC (β-catenin reporter) and LB1-LUC (AR reporter). […] Luciferase activity was normalized to β-galactosidase expression.
(§2) To determine the IC50 for the β-catenin/Wnt-responsive reporter, cells were cotransfected with β-galactosidase (LacZ) and a constitutively active S37A stabilized β-catenin mutant construct together with the reporter construct, STF16-LUC. To determine the IC50 for the AR-responsive construct, cells were cotransfected with LacZ and the AR responsive reporter construct, ARE-LUC. […] B) AR overexpression circumvents C3 repression of AR-responsive transcription. LNCaP cells were cotransfected with 0.1 μg LacZ and 0.2 μg of the AR responsive reporter construct, ARE-LUC, together with 0, 0.05, 0.1 and 0.2 μg of an AR expression vector. […] Luciferase activity was normalized to LacZ expression.
(§3) 108(15): 5954-63], it had not been determined in prostate cancer cells. […] 69(8): 3332-8].

[3] = test system: AR, PSA, c-myc, CDK1, UBE2C protein in LNCaP cells; test: Western blot time course of AR and β-catenin target proteins in LNCaP cells
Experimental: (§4) ABL cells were treated similarly, but cultured in 5% charcoal-stripped phenol-red free RPMI. The mRNA was extracted at each time point and relative levels of indicated genes were analyzed by Q-PCR and normalized to RPL19. B) Protein from LNCaP cells was analyzed at each time point and immunoblotted with indicated antibodies.
(§5) Expression of tubulin (included as an internal loading control) and β-catenin were unaffected.

[4] = test system: AR and β-catenin target genes in LNCaP-abl cells; test: Q-PCR time course of AR and β-catenin target genes in LNCaP-abl cells; details: single dose at time 0, persists for 48 hours, FIG. 16A
Experimental: as §4, §5

[5] = test system: VCaP cells; test: Growth of VCaP cells; details: 20 μM daily
[6] = test system: membrane bound β-catenin; test: Immunofluorescence of membrane β-catenin in androgen-deprived LNCaP cells
From the text: An important objective in the initial screen for inhibitors of β-catenin responsive transcription (iCRT) was to isolate compounds that diminished the nuclear function of β-catenin without affecting β-catenin interaction with E-cadherin at the cell membrane.

[7] = test system: AR nascent mRNA; test: Q-PCR of nascent AR mRNA in LNCaP cells; details: 20 μM, four hours, presence or absence of R1881
Experimental: RNA was extracted, treated with deoxyribonuclease and subjected to cDNA synthesis. Relative levels of nascent AR mRNA were analyzed by Q-PCR using primers flanking exon/exon and exon/intron.

[8] = test system: AR and β-catenin target genes in LNCaP cells; test: Q-PCR of AR and β-catenin target genes in LNCaP cells; details: 20 μM, 24 hr
From the text: Samples are normalized to RPL19 and E-cadherin and GAPDH are included as controls.
While β-catenin can act as an AR coactivator [Song et al., J Biol Chem, 2005. 280(45): 37853-67], AR mRNA levels are also directly regulated by TCF binding sites in the AR promoter [Yang et al., Oncogene, 2006. 25(24): 3436-44]. […] AR mRNA was quantified along with well-characterized AR target genes, Nkx3.1 and PSA. In addition, CDC20, CDK1 and UBE2C, M phase cell cycle regulatory genes that are AR targets in LNCaP-abl cells were examined [Wang et al., Cell, 2009. 138(2): 245-56]. Levels of c-myc were also examined since c-myc is a known Wnt/β-catenin target gene and assessment of information available through the Memorial Sloan Kettering cBio Cancer Genomics portal [Taylor et al., Cancer Cell, 2010. […] E-cadherin and GAPDH are not affected by C3 treatment.

[9] = test system: ARE-LUC androgen responsive reporter gene in LNCaP-abl; test: AR responsive luciferase reporter (ARE-LUC / LB1-LUC) in LNCaP-abl cells
Experimental: as §1, §2, §3

[10] = test system: HEK 293 cells; test: PARP cleavage immunoblot, HEK293; details: HEK 293, 20 μM, 72 hr
[11] = test system: LNCaP cells; test: PARP cleavage immunoblot as marker of apoptosis, LNCaP; details: 20 μM, 72 hr

CCc1ccc(-c2nc(CSCC(=O)NCCc3ccccc3)c(C)o2)cc1 [Compound C3]
cell growth [1]: completely abolished | IC50 ([2]; LNCaP (first of two values)): 1.44 µM | AR reporter gene activity (LB1-LUC) ([2]; LNCaP, 20 uM, 24 hr): inhibits | expression of tubulin and β-catenin protein [3]: unaffected | levels of AR, PSA, c-myc, CDK1 and UBE2C protein ([3]; especially at 48-hour time point): diminished levels | AR, CDK1, UBE2C and c-myc mRNA [4]: diminished | cell growth [5]: completely abolished | ability of β-catenin to interact with E-cadherin at the cell membrane [6]: does not affect | levels of newly synthesized AR mRNA [7]: diminishes | mRNA of E-cadherin and GAPDH (controls) [8]: not affected | mRNA of AR, NR×3.1, CDC20, PSA, CDK1, c-myc and UBE2C ([8]; with or without R1881): diminished | IC50 ([9]; LNCaP-abl (second of two values)): 1.61 µM | AR reporter gene activity (LB1-LUC) ([9]; LNCaP-abl, 20 uM, 24 hr): inhibits | apoptosis (PARP cleavage) in 293 cells [10]: does not induce apoptosis | PARP cleavage (apoptosis marker) [11]: Increased levels of PARP cleavage
